Test results reported in patent US10442805B2, “Polymorphic forms of a hydrochloride salt of (S)-2-(1-(9H-purin-6-ylamino)propyl)-5-fluoro-3-phenylquinazolin-4(3H)-one” (GILEAD CALISTOGA LLC, priority 2013, dated 2019).
One block for each compound: values may come before it.

Columns and labels:
Format in all cases: physicochemical
[1] = Hydrate screen on the HCl salt: solubility in ethanol/water; details: ethanol/water mixture, aqueous with cosolvent or surfactant or cyclodextrin, thermodynamic from solid; for solubility at 5 days: solubility column beside XRPD after 5 days
Excerpt: (§1) Polymorphic Form I of a hydrochloride salt of (S)-2-(1-(9H-purin-6-ylamino)propyl)-5-fluoro-3-phenylquinazolin-4(3H)-one, i.e., Compound of Formula (I), prepared according to the protocols described in Example 1 above was mixed with ethanol and water. XRPDs were taken on Days 5 and 21.

[2] = Hydrate screen on the HCl salt: solid form by XRPD in ethanol/water (effect of water on stability of Form I); details: for changes in XRPD in the hydrate screen: water/ethanol system
Experimental: (§2) XRPD patterns were collected at room temperature, using a PANalytical X'Pert MPD Pro Powder X-Ray Diffractometer configured with reflectance stage with spinning, data acquisition range: 2-40 degrees 2θ, Copper (Cu) anode; Kα1/Kα2 radiation; tube current 40 mA; tube tension 45 kV; automatic divergence and anti-scatter slits. Samples were prepared for analysis by distributing solid material as a thin layer on a silicon holder. Each holder was mounted on a reflectance/transmittance stage and rotated during data acquisition.
as §1

[3] = Form screen on the HCl salt: solid form by XRPD after suspension in solvent
Experimental: as §2, with “acquisition. […] After 7 days, a sample of the suspension was removed from the vial/flask, and the sample was centrifuged and filtered to separate the solids from the liquid in the sample. The isolated solids were characterized by XRPD (collected at room temperature). The filtrate was retained. After about 25 days, another sample was removed from the vial/flask, and the sample was centrifuged and filtered to separate the solids from the liquid in the sample. The isolated solids were characterized by XRPD (collected at room temperature).” for “acquisition.”

[4] = Dynamic vapour sorption (DVS); details: 25° C.
[5] = XRPD of solvate forms after drying or heating
Experimental: For Pattern 1, shown in FIGS. 14A and 15B, 50 mg of the hydrochloride salt of the Compound Formula (I) was suspended in propyl acetate (3.5 mL, 70 vol) and held at 50° C. for 15 minutes, after which 1.1 eq of 12M HCl (11.6 μL) was added and the sample slowly cooled from 50° C. to 5° C. at 0.1° C. per minute. The XRPD pattern shown in FIG. 14A was observed while the sample was wet. […] FIG. 14C depicts the XRPD pattern after further heating at about 145° C. for about 16 hours (Pattern 9′).
For the toluene solvate, shown in FIG. 20 (wet), 50 mg of the polymorphic Form I of a hydrochloride salt of the Compound of Formula (I) was treated with toluene (3.5 mL, 70 vols), producing a suspension at 50° C. This suspension was matured between 50° C. and room temperature (8 hours per cycle) for three days.

[6] = 114 mg in tetrahydrofuran (THF)
[7] = 117 mg in isopropyl acetate (IPAc)
[8] = 140 mg in ethyl acetate (EtOAc)
[9] = 149 mg in methyl ethyl ketone (MEK)
[10] = 150 mg in methyl t-butyl ether (MTBE)
[11] = 154 mg in 2-methyltetrahydrofuran (2-MeTHF)
[12] = 160 mg in dichloromethane (DCM)
[13] = 176 mg in methyl isobutyl ketone (MIBK)

- solubility at 21 days ([1]; Ethanol/water aw 0.2): 60 mg/mL
- solubility at 5 days ([1]; Ethanol/water aw 0.2): 26 mg/mL
- solubility at 21 days ([1]; Ethanol/water aw 0.3): 33 mg/mL
- solubility at 5 days ([1]; Ethanol/water aw 0.3): 47 mg/mL
- solubility at 21 days ([1]; Ethanol/water aw 0.4): 66 mg/mL
- solubility at 5 days ([1]; Ethanol/water aw 0.4): 57 mg/mL
- solubility at 21 days ([1]; Ethanol/water aw 0.5): 93 mg/mL
- solubility at 5 days ([1]; Ethanol/water aw 0.5): 72 mg/mL
- solubility at 21 days ([1]; Ethanol/water aw 0.6): 183 mg/mL
- solubility at 21 days ([1]; Ethanol/water aw 0.7): 223 mg/mL
- solubility at 21 days ([1]; Ethanol/water aw 0.8): 174 mg/mL
- solubility at 21 days ([1]; Ethanol/water aw 0.9): 44 mg/mL
- XRPD after 5 days ([2]; Ethanol/water aw 0.2): Form I
- XRPD after 21 days ([2]; Ethanol/water aw 0.2): Form I
- XRPD after 5 days ([2]; Ethanol/water aw 0.3): Form I
- XRPD after 21 days ([2]; Ethanol/water aw 0.3): Form I
- XRPD after 5 days ([2]; Ethanol/water aw 0.4): Form I
- XRPD after 21 days ([2]; Ethanol/water aw 0.4): Form I
- XRPD after 5 days ([2]; Ethanol/water aw 0.5): Form I
- XRPD after 21 days ([2]; Ethanol/water aw 0.5): Form I
- XRPD after 5 days ([2]; Ethanol/water aw 0.6): Form I
- XRPD after 21 days ([2]; Ethanol/water aw 0.6): Form I
- XRPD after 5 days ([2]; Ethanol/water aw 0.7): Form I
- XRPD after 21 days ([2]; Ethanol/water aw 0.7): Form I
- XRPD after 5 days ([2]; Ethanol/water aw 0.8): Form I
- XRPD after 21 days ([2]; Ethanol/water aw 0.8): Form I
- changes in XRPD in the hydrate screen ([2]; all water activities except 0.9): no changes in XRPD
- XRPD after 7 days [3, 6]: new
- XRPD after about 25 [3, 6]: Form IX
- XRPD after 7 days [3, 7]: Form I
- XRPD after about 25 [3, 7]: Form I
- XRPD after 7 days ([3]; 119 mg in water): Form I
- XRPD after about 25 ([3]; 119 mg in water): Form I
- XRPD after 7 days ([3]; 120 mg in acetonitrile (ACN)): Form I
- XRPD after about 25 ([3]; 120 mg in acetonitrile (ACN)): Form I
- XRPD after 7 days ([3]; 125 mg in acetone): new
- XRPD after about 25 ([3]; 125 mg in acetone): Form X
- XRPD after 7 days ([3]; 132 mg in 2-propanol): Form I
- XRPD after about 25 ([3]; 132 mg in 2-propanol): mixture
- XRPD after 7 days [3, 8]: Form I
- XRPD after about 25 [3, 8]: Form I
- XRPD after 7 days [3, 9]: new
- XRPD after about 25 [3, 9]: Form VII
- XRPD after 7 days [3, 10]: Form I
- XRPD after about 25 [3, 10]: Form I
- XRPD after 7 days [3, 11]: Form V
- XRPD after about 25 [3, 11]: Form V
- XRPD after 7 days ([3]; 155 mg in methanol): Form I
- XRPD after about 25 ([3]; 155 mg in methanol): Form I
- XRPD after 7 days ([3]; 157 mg in Ethanol): Form I
- XRPD after about 25 ([3]; 157 mg in Ethanol): Form I
- XRPD after 7 days [3, 12]: new
- XRPD after about 25 [3, 12]: Form VIII
- XRPD after 7 days ([3]; 163 mg in n-heptane): Form I
- XRPD after about 25 ([3]; 163 mg in n-heptane): Form I
- XRPD after 7 days [3, 13]: Form I
- XRPD after about 25 [3, 13]: Form VI
- XRPD after about 25 ([3]; 10 g in 1-butanol): Form XIII
- XRPD after about 25 ([3]; 10 g in 1-propanol): Form XII
- XRPD after about 25 ([3]; 10 g in 2-propanol): Form XI
- DVS: mass change as a function of RH [4]: minor mass increase
Structure (SMILES): CC[C@H](Nc1ncnc2[nH]cnc12)c1nc2cccc(F)c2c(=O)n1-c1ccccc1 [(S)-2-(1-(9H-purin-6-ylamino)propyl)-5-fluoro-3-phenylquinazolin-4(3H)-one]
- changes in XRPD in the hydrate screen ([2]; water activity 0.9): converted some of the hydrochloride salt to polymorphic Form I of the free form

- XRPD pattern after drying ([5]; drying in a vacuum oven at about 25° C. for 6 days): Pattern 9
Structure (SMILES): CC[C@H](Nc1ncnc2[nH]cnc12)c1nc2cccc(F)c2c(=O)n1-c1ccccc1 [Pattern 1, (S)-2-(1-(9H-purin-6-ylamino)propyl)-5-fluoro-3-phenylquinazolin-4(3H)-one]

- XRPD pattern after further heating ([5]; further heating at about 145° C. for about 16 hours): Pattern 9′
Structure (SMILES): CC[C@H](Nc1ncnc2[nH]cnc12)c1nc2cccc(F)c2c(=O)n1-c1ccccc1 [Pattern 9, (S)-2-(1-(9H-purin-6-ylamino)propyl)-5-fluoro-3-phenylquinazolin-4(3H)-one]

- XRPD upon drying ([5]; upon drying): mixture of Pattern 1 and Pattern 9′
Structure (SMILES): CC[C@H](Nc1ncnc2[nH]cnc12)c1nc2cccc(F)c2c(=O)n1-c1ccccc1 [Toluene solvate, (S)-2-(1-(9H-purin-6-ylamino)propyl)-5-fluoro-3-phenylquinazolin-4(3H)-one]
